The target in experiment [1] is T1, JAK3 (Homo sapiens, UniProt P52333).
T1 construct: purchased Invitrogen
T1 sequence (P52333 1-1124): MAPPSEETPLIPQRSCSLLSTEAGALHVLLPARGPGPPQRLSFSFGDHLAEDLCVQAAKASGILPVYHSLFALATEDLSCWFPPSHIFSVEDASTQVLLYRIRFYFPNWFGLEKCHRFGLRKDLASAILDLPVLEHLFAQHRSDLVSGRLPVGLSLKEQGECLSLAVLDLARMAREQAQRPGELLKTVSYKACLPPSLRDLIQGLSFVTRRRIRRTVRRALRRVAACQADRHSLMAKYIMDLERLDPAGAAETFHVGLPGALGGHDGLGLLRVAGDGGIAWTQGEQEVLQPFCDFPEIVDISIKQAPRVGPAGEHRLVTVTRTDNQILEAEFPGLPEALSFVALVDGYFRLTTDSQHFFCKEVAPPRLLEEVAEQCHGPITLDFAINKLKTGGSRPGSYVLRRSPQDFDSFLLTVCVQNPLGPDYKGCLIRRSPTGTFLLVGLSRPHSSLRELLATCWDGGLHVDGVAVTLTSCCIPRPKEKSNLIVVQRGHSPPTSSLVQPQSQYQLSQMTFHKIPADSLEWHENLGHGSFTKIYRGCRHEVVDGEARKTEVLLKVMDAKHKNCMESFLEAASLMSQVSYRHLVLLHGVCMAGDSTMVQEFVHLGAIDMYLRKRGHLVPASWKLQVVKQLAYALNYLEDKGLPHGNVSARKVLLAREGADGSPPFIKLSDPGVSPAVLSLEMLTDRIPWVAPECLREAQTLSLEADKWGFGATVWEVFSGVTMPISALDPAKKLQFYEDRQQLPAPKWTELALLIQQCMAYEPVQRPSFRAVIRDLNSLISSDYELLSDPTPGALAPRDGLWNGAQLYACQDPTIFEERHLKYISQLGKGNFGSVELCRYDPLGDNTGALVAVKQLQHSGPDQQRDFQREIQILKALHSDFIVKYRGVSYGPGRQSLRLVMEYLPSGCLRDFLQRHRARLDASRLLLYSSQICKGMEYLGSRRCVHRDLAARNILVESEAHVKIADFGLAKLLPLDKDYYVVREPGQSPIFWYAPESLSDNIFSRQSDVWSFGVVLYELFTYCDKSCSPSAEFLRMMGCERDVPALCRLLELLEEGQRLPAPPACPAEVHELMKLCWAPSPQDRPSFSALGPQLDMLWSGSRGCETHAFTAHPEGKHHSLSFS
Nature of the experiment: Assay for JAK3 Inhibition (phosphorylation of FAM-labeled substrate, Caliper LC-3000). Format: biochemical. Conditions: −log10(IC50), IC50 is the molar concentration at 50% inhibition; read-out: JAK3 pIC50 (converted).

Experiment [2] has as its target T2, JAK2 (Homo sapiens, UniProt O60674).
T2 construct: purchased Invitrogen
Nature of the experiment: Assay for JAK2 Inhibition (phosphorylation of FAM-labeled substrate, Caliper LC-3000). Format: biochemical. Conditions: −log10(IC50), IC50 is the molar concentration at 50% inhibition; read-out: JAK2 pIC50 (converted).

SMILES strings stand for the structures.

Consider twelve compounds from patent US8785429B2, “Dihydropyrrolonaphthyridinone compounds as inhibitors of JAK” (Takeda Pharmaceutical Company Limited, priority 2009, dated 2014).

T2 sequence (O60674 whole entry): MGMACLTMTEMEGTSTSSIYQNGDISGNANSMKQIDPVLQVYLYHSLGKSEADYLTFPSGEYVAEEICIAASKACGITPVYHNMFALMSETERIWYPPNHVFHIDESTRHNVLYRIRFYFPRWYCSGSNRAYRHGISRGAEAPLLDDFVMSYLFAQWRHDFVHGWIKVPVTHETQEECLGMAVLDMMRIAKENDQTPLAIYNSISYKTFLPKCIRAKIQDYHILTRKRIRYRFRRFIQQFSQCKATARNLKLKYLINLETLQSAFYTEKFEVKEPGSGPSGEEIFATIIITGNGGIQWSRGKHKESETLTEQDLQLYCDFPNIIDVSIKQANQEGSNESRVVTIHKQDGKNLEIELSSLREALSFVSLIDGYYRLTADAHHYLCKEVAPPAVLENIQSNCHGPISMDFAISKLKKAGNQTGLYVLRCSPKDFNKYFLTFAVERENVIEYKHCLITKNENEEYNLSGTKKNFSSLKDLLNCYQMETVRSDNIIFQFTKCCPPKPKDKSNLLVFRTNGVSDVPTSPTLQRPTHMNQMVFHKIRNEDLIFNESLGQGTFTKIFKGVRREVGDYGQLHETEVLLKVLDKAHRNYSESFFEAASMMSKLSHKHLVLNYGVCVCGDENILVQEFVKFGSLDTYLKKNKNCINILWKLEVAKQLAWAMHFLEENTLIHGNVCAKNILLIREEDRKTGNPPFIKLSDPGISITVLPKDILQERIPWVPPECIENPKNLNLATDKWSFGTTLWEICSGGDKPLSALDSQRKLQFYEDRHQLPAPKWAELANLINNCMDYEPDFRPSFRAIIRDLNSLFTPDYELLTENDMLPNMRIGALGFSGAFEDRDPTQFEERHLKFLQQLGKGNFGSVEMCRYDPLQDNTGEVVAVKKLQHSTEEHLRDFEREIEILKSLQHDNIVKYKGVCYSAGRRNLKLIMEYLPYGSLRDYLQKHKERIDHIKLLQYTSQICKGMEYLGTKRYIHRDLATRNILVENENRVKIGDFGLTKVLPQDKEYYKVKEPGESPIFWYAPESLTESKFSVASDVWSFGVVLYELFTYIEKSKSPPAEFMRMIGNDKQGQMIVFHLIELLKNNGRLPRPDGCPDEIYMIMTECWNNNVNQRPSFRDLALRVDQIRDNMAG

Consider `CC(C)[C@H](C(=O)NC1CCS(=O)(=O)C1)N1Cc2c(F)cnc3[nH]cc(c23)C1=O` (stereo partly drawn) [Example 45, (R)-2-(6-fluoro-3-oxopyrrolo[4,3,2-de][2,6]naphthyridin-4(1H,3H,5H)-yl)-3-methyl-N-(1,1-dioxidotetrahydrothien-3-yl)butanamide], for which the figures for the IC50 in experiment [1] and in experiment [2] were 0.0631 µM and 2 µM, respectively.
Taken in the same sequence, the figures for `CC(C#N)NC(=O)[C@@H](C(C)C)N1Cc2c(F)cnc3[nH]cc(c23)C1=O` (stereo partly drawn) [Example 75, (2R)—N-(1-cyanoethyl)-2-(6-fluoro-3-oxopyrrolo[4,3,2-de][2,6]naphthyridin-4(1H,3H,5H)-yl)-3-methylbutanamide] were 0.0316 µM and 0.794 µM.
Taken in the same sequence, the figures for `CC[C@H](C(=O)N(C)CC(C)C)N1Cc2ccnc3[nH]cc(c23)C1=O` [Example 68, (R)—N-isobutyl-N-methyl-2-(3-oxopyrrolo[4,3,2-de][2,6]naphthyridin-4(1H,3H,5H)-yl)butanamide] were 2.51 µM and 20 µM.
The like results for `O=C(NC1CCCC1)[C@@H](CC(F)(F)F)N1Cc2ccnc3[nH]cc(c23)C1=O` [Example 28, (R)—N-cyclopentyl-4,4,4-trifluoro-2-(3-oxopyrrolo[4,3,2-de][2,6]naphthyridin-4(1H,3H,5H)-yl)butanamide] were, in that order, 0.398 µM and 10 µM.
Regarding `CC(C)[C@H](C(=O)Nc1ccc(C#N)cc1)N1Cc2c(Cl)cnc3[nH]cc(c23)C1=O` [Example 35, (R)-2-(6-chloro-3-oxopyrrolo[4,3,2-de][2,6]naphthyridin-4(1H,3H,5H)-yl)-N-(4-cyanophenyl)-3-methylbutanamide], the IC50 was 0.316 µM in experiment [1] and 2.51 µM in experiment [2].
Taken in the same sequence, the figures for `CC(C)[C@H](C(=O)NC1CCC(F)(F)C1)N1Cc2c(F)cnc3[nH]cc(c23)C1=O` (stereo partly drawn) [Example 50, (2R)—N-(3,3-difluorocyclopentyl)-2-(6-fluoro-3-oxopyrrolo[4,3,2-de][2,6]naphthyridin-4(1H,3H,5H)-yl)-3-methylbutanamide] were 0.0794 µM and 1.58 µM.
Taken in the same sequence, the figures for `CC[C@H](C(=O)NCC(C)C)N1Cc2ccnc3[nH]cc(c23)C1=O` [Example 67, (R)—N-isobutyl-2-(3-oxopyrrolo[4,3,2-de][2,6]naphthyridin-4(1H,3H,5H)-yl)butanamide] were 0.251 µM and 5.01 µM.
Taken in the same sequence, the figures for `N#CC[C@H](C(=O)NC1CCCC1)N1Cc2c(Cl)cnc3[nH]cc(c23)C1=O` [Example 30, (R)-2-(6-chloro-3-oxopyrrolo[4,3,2-de][2,6]naphthyridin-4(1H,3H,5H)-yl)-3-cyano-N-cyclopentylpropanamide] were 1.26 µM and 3.16 µM.
In the case of `CC(C)[C@H](C(=O)N1CC(C)(C#N)C1)N1Cc2c(F)cnc3[nH]cc(c23)C1=O` [Example 52, (R)-1-(2-(6-fluoro-3-oxopyrrolo[4,3,2-de][2,6]naphthyridin-4(1H,3H,5H)-yl)-3-methylbutanoyl)-3-methylazetidine-3-carbonitrile], the IC50 in experiment [1] was 0.01 µM; in experiment [2] it was 0.2 µM.
As for `CC(C)[C@H](C(=O)N1CCC[C@H]1C#N)N1Cc2c(Cl)cnc3[nH]cc(c23)C1=O` [Example 84, (S)-1-((R)-2-(6-chloro-3-oxopyrrolo[4,3,2-de][2,6]naphthyridin-4(1H,3H,5H)-yl)-3-methylbutanoyl)pyrrolidine-2-carbonitrile], the figures for the IC50 in experiment [1] and in experiment [2] were 0.2 µM and 3.16 µM, respectively.
Taken in the same sequence, the figures for `CC[C@H](C(=O)NC1CC1)N1Cc2ccnc3[nH]cc(c23)C1=O` [Example 65, (R)—N-cyclopropyl-2-(3-oxopyrrolo[4,3,2-de][2,6]naphthyridin-4(1H,3H,5H)-yl)butanamide] were 2 µM and 6.31 µM.
For `CC[C@@H](C)[C@H](C(=O)NC1CCCC1)N1Cc2ccnc3[nH]cc(c23)C1=O` [Example 23, (2R,3R)—N-cyclopentyl-3-methyl-2-(3-oxopyrrolo[4,3,2-de][2,6]naphthyridin-4(1H,3H,5H)-yl)pentanamide], the IC50 was 0.398 µM in experiment [1] and 3.98 µM in experiment [2].
